Measured values from article PMC3954431 (Molecular cancer therapeutics, 2013).

Key:
[1] = tested on: UN1 mAb binding to UN1-positive breast and gastric cancer tissues; assay: Competition of UN1 mAb binding to cancer tissues; parameters: species or system human; conditions: Fig. S3
[2] = tested on: W6/32 mAb (anti-human HLA class I antigen) binding; assay: Competition of W6/32 mAb binding; assay type: cell-based; conditions: Fig. S2B
UN1 mAb = assay: Surface plasmon resonance, UN1 mAb immobilized on CM5 chip; assay type: binding, murine; conditions: Biacore 3000, UN1 mAb immobilized on CM5 chip, peptide 0.1-2.5 mM
[3] = Balb/c mice
wild type phage = assay: ELISA reactivity of immunized mice sera against wild type phage; assay type: in vivo; conditions: sera of phage-immunized Balb/c mice
[4] = ELISA reactivity of immunized mice sera against G23 peptide; assay type: in vivo; conditions: sera of phage-immunized Balb/c mice
[5] = ELISA reactivity of immunized mice sera against scrambled peptide; assay type: in vivo; conditions: sera of phage-immunized Balb/c mice
[6] = sera, days 7-10 from the 6th boost, 5 animals/group, colorimetric assay, mean ± SEM

Sequence | competition of UN1 mAb binding to breast and gastric cancer tissues [1] | competition of W6/32 mAb binding [2] | SPR signal (UN1 mAb) | health of immunized mice ([3]; 5 animals/group, i.p. phage immunization) | serum IL1-β, GSH and LDH levels versus normal ([3]; phage-immunized) | GSH [3, 6] | LDH [3, 6] | IL-1β ([3]; serum, days 7-10 from the 6th boost, 5 animals/group, ELISA, mean ± SEM) | antibody response against the wild type phage (wild type phage) | serum reactivity against G23 peptide [4] | serum reactivity against scrambled peptide [5]
SFAATPHTCKLLDECVPLWPAEG [G23] | competed the binding of UN1 mAb to UN1-positive breast and gastric cancer tissues | did not compete the binding of W6/32 mAb |  |  |  |  |  |  |  |  | 
TCLAPDVPEPLSHCWAGETFKLA [scrambled peptide] |  |  | failed to give the SPR signal |  |  |  |  |  |  |  | 
TPHTCKLLDECVPLW [phagotope 2/165] | competed the binding of UN1 mAb to UN1-positive breast and gastric cancer tissues |  |  | appeared healthy and did not show any ill-effect | in the range of normality | 10.1 ± 0.9 µM | 52.9 ± 15.4 IU/L | 58.2 ± 0.3 pg/mL | strong and comparable antibody response against the wild type phage | specific immune response against the UN1 mimotope G23 peptide | unreactive against the scrambled peptide
